The values below come from PubChem BioAssay (NCI).

Molecules are shown by their SMILES.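 Compound exposure: 48 hours, 5 concentrations, 96-well plates. TGI is the concentration that stops growth completely.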

One experiment concerns HCT-116 colon. Put plainly: growth of human tumour cells (NCI), 48 h.
Regarding `NC(=O)C(Nc1c(Cl)cccc1Cl)c1cc2cc(Br)ccc2nc1Cl` (configuration not stated), the TGI is more than 100 µM.

For `CCOC(=O)CSc1ccnc(=O)[nH]1`, the TGI is more than 100 µM.

In turn, `COc1ccc(Br)c2c1CC(C(=O)O)CC2` (configuration not stated) displayed a TGI of more than 100 µM.

For `Fc1cc(C2=C[C@H](c3ccc(Cl)cc3)NC(=S)N2)c(Cl)cc1Cl`, the TGI is more than 100 µM.

Another experiment relates to HOP-62 NSCLC. Put plainly: growth of human tumour cells (NCI), 48 h.
Compound `CCOC(C[C@H](O)[C@H]1COC(=S)S1)OCC` showed a TGI of more than 100 µM.

Take `Cn1c(O)c(C(=O)Nc2cccs2)c(=O)[nH]c1=S`: the TGI was determined as 40.6 µM.

For `O=C1c2cc3c(cc2CC12Cc1cc4c(cc1C2=O)CCCC4)CCCC3`, the TGI amounted to 57.1 µM.

`c1csc(-c2cscc2-c2ccsc2)c1` had a TGI of more than 100 µM.

In the case of `COc1ccc(C2c3cc4c(cc3C(O)C3CCC(=O)N23)OCO4)cc1` (configuration not stated), the TGI is more than 100 µM.

On to `CC1(C)C(=O)N(O)C(C)(C)N1O`, for which the TGI was more than 10 µM.

`CCOC(=O)CCC(NC(=O)Cc1ccc(Nc2nc3ccccc3nc2-c2ccccc2)cc1)C(=O)OCC` (configuration not stated) came in with a TGI of more than 100 µM.

The compound `COc1cc(/C=C/C(=O)c2sc(-n3nc(-c4ccccc4)cc3-c3ccccc3)nc2C)ccc1O` had a TGI of more than 100 µM.

In turn, `O=S1(=O)c2cnccc2NC(=NCc2cccc3ccccc23)N1c1ccccc1` gave a TGI of more than 100 µM.

In the case of `COc1cc(/C=C\c2ccccn2)cc(OC)c1OC`, the TGI was more than 100 µM.

For `CCCCCC(=O)Nc1n[nH]nc1C(N)=O`, the TGI was more than 100 µM.

`O=P(O)(OCC(O)O)OCC(O)O` gave a TGI of more than 100 µM.

In the case of `NC(=O)C(Nc1c(Cl)cccc1Cl)c1cc2cc(Br)ccc2nc1Cl` (configuration not stated), the TGI is more than 100 µM.

`COc1ccc(Br)c2c1CC(C(=O)O)CC2` (configuration not stated) gave a TGI of more than 100 µM.

Consider `Fc1cc(C2=C[C@H](c3ccc(Cl)cc3)NC(=S)N2)c(Cl)cc1Cl`, for which the TGI was more than 100 µM.

The next experiment relates to KM12 colon. Description: growth of human tumour cells (NCI), 48 h.
`CCOC(C[C@H](O)[C@H]1COC(=S)S1)OCC` returned a TGI of more than 100 µM.

Compound `Cn1c(O)c(C(=O)Nc2cccs2)c(=O)[nH]c1=S` returned a TGI of 33.4 µM.

Consider `O=C1c2cc3c(cc2CC12Cc1cc4c(cc1C2=O)CCCC4)CCCC3`, for which the TGI is more than 100 µM.

`c1csc(-c2cscc2-c2ccsc2)c1` yielded a TGI of more than 85.6 µM.

As to `COc1ccc(C2c3cc4c(cc3C(O)C3CCC(=O)N23)OCO4)cc1` (configuration not stated), the TGI is more than 100 µM.

Compound `CC1(C)C(=O)N(O)C(C)(C)N1O` came in with a TGI of more than 10 µM.

Take `CCOC(=O)CCC(NC(=O)Cc1ccc(Nc2nc3ccccc3nc2-c2ccccc2)cc1)C(=O)OCC` (configuration not stated): the TGI is more than 100 µM.

On to `COc1cc(/C=C/C(=O)c2sc(-n3nc(-c4ccccc4)cc3-c3ccccc3)nc2C)ccc1O`, for which the TGI is more than 100 µM.

With `O=S1(=O)c2cnccc2NC(=NCc2cccc3ccccc23)N1c1ccccc1`, the TGI is more than 100 µM.

In the case of `COc1cc(NC(C)=O)c2[nH]c3c(C)cc(NC(C)=O)c(C)c3c2c1`, the TGI is more than 100 µM.

Compound `COc1cc(/C=C\c2ccccn2)cc(OC)c1OC` showed a TGI of more than 100 µM.

Consider `CCCCCC(=O)Nc1n[nH]nc1C(N)=O`, for which the TGI is more than 100 µM.

`O=P(O)(OCC(O)O)OCC(O)O` gave a TGI of more than 100 µM.

In turn, `NC(=O)C(Nc1c(Cl)cccc1Cl)c1cc2cc(Br)ccc2nc1Cl` (configuration not stated) registered a TGI of more than 100 µM.

In the case of `CCOC(=O)CSc1ccnc(=O)[nH]1`, the TGI was more than 100 µM.

As for `COc1ccc(Br)c2c1CC(C(=O)O)CC2` (configuration not stated), the TGI is more than 100 µM.

`Fc1cc(C2=C[C@H](c3ccc(Cl)cc3)NC(=S)N2)c(Cl)cc1Cl` yielded a TGI of more than 100 µM.

In a further experiment the test system is M14 melanoma. Put plainly: growth of human tumour cells (NCI), 48 h.
The compound `CCOC(C[C@H](O)[C@H]1COC(=S)S1)OCC` gave a TGI of more than 100 µM.

`Cn1c(O)c(C(=O)Nc2cccs2)c(=O)[nH]c1=S`: the TGI amounted to 64.3 µM.

`O=C1c2cc3c(cc2CC12Cc1cc4c(cc1C2=O)CCCC4)CCCC3`: the TGI was more than 100 µM.

In the case of `c1csc(-c2cscc2-c2ccsc2)c1`, the TGI was more than 100 µM.

In the case of `COc1ccc(C2c3cc4c(cc3C(O)C3CCC(=O)N23)OCO4)cc1` (configuration not stated), the TGI was more than 100 µM.

Consider `CC1(C)C(=O)N(O)C(C)(C)N1O`, for which the TGI was more than 10 µM.

`CCOC(=O)CCC(NC(=O)Cc1ccc(Nc2nc3ccccc3nc2-c2ccccc2)cc1)C(=O)OCC` (configuration not stated) registered a TGI of more than 100 µM.

The compound `O=S1(=O)c2cnccc2NC(=NCc2cccc3ccccc23)N1c1ccccc1` came in with a TGI of more than 100 µM.

`COc1cc(NC(C)=O)c2[nH]c3c(C)cc(NC(C)=O)c(C)c3c2c1` gave a TGI of more than 100 µM.

In turn, `COc1cc(/C=C\c2ccccn2)cc(OC)c1OC` yielded a TGI of more than 100 µM.

Compound `CCCCCC(=O)Nc1n[nH]nc1C(N)=O` had a TGI of more than 100 µM.

`NC(=O)C(Nc1c(Cl)cccc1Cl)c1cc2cc(Br)ccc2nc1Cl` (configuration not stated) displayed a TGI of more than 100 µM.

In the case of `CCOC(=O)CSc1ccnc(=O)[nH]1`, the TGI was more than 100 µM.

`COc1ccc(Br)c2c1CC(C(=O)O)CC2` (configuration not stated): the TGI is more than 100 µM.

In turn, `Fc1cc(C2=C[C@H](c3ccc(Cl)cc3)NC(=S)N2)c(Cl)cc1Cl` yielded a TGI of more than 100 µM.

The test system of another experiment is M19-MEL melanoma. Put plainly: growth of human tumour cells (NCI), 48 h.
As to `CCOC(C[C@H](O)[C@H]1COC(=S)S1)OCC`, the TGI was more than 100 µM.

Compound `Cn1c(O)c(C(=O)Nc2cccs2)c(=O)[nH]c1=S` came in with a TGI of 44.3 µM.

Compound `COc1cc(/C=C/C(=O)c2sc(-n3nc(-c4ccccc4)cc3-c3ccccc3)nc2C)ccc1O` returned a TGI of more than 100 µM.

Consider `COc1cc(NC(C)=O)c2[nH]c3c(C)cc(NC(C)=O)c(C)c3c2c1`, for which the TGI was more than 100 µM.

On to `COc1cc(/C=C\c2ccccn2)cc(OC)c1OC`, for which the TGI is more than 100 µM.

In the case of `O=P(O)(OCC(O)O)OCC(O)O`, the TGI was more than 100 µM.

With `CCOC(=O)CSc1ccnc(=O)[nH]1`, the TGI is more than 100 µM.

The test system of another experiment is MDA-MB-435. Put plainly: growth of human tumour cells (NCI), 48 h.
As for `O=C1c2cc3c(cc2CC12Cc1cc4c(cc1C2=O)CCCC4)CCCC3`, the TGI is more than 100 µM.

`c1csc(-c2cscc2-c2ccsc2)c1`: the TGI was more than 68 µM.

With `COc1ccc(C2c3cc4c(cc3C(O)C3CCC(=O)N23)OCO4)cc1` (configuration not stated), the TGI is more than 100 µM.

`CC1(C)C(=O)N(O)C(C)(C)N1O` displayed a TGI of more than 10 µM.

Turning to `CCOC(=O)CCC(NC(=O)Cc1ccc(Nc2nc3ccccc3nc2-c2ccccc2)cc1)C(=O)OCC` (configuration not stated), the TGI is more than 100 µM.

Turning to `O=S1(=O)c2cnccc2NC(=NCc2cccc3ccccc23)N1c1ccccc1`, the TGI is more than 100 µM.

The compound `CCCCCC(=O)Nc1n[nH]nc1C(N)=O` showed a TGI of more than 100 µM.

For `NC(=O)C(Nc1c(Cl)cccc1Cl)c1cc2cc(Br)ccc2nc1Cl` (configuration not stated), the TGI was 49.9 µM.

The compound `COc1ccc(Br)c2c1CC(C(=O)O)CC2` (configuration not stated) returned a TGI of more than 100 µM.

`Fc1cc(C2=C[C@H](c3ccc(Cl)cc3)NC(=S)N2)c(Cl)cc1Cl` returned a TGI of more than 100 µM.

For another experiment, the system named is MOLT-4 leukemia. Description: growth of human tumour cells (NCI), 48 h.
The compound `Cn1c(O)c(C(=O)Nc2cccs2)c(=O)[nH]c1=S` gave a TGI of 61.7 µM.

For the compound `O=C1c2cc3c(cc2CC12Cc1cc4c(cc1C2=O)CCCC4)CCCC3`, the TGI is more than 100 µM.

The compound `c1csc(-c2cscc2-c2ccsc2)c1` returned a TGI of more than 100 µM.

`COc1ccc(C2c3cc4c(cc3C(O)C3CCC(=O)N23)OCO4)cc1` (configuration not stated) gave a TGI of more than 100 µM.
